Laboratory results as given in patent US7553867B2, “Furan or thiophene derivative and medicinal use thereof” (Takeda Pharmaceutical Company Limited, priority 2002, dated 2009).

Structure (SMILES): Cc1oc(-c2ccc(C(F)(F)F)cc2)cc1COc1cccc(C(C)(C)C(=O)O)c1 [Example 6(85), 2-Methyl-2-[3-({2-methyl-5-[4-(trifluoromethyl)phenyl]-3-furyl}methoxy)phenyl]propionic acid]
- melting point: 127 to 128 °C

Structure (SMILES): Cc1oc(-c2cccc(C(F)(F)F)c2)cc1COc1ccc(SC(C)(C)C(=O)O)cc1 [Example 6(108), 2-Methyl-2-{[4-({2-methyl-5-[3-(trifluoromethyl)phenyl]-3-furyl}methoxy)phenyl]thio}propionic acid]
- melting point: 108 to 109 °C

Structure (SMILES): Cc1oc(-c2ccc(C(F)(F)F)cc2)cc1CC(=O)Nc1cccc(CSCC(=O)O)c1 [Example 4(1), ({3-[({2-Methyl-5-[4-(trifluoromethyl)phenyl]-3-furyl}acetyl)amino]benzyl}thio)acetic acid]
- melting point: 173 to 174 °C

Structure (SMILES): Cc1oc(-c2ccc(F)cc2)cc1C(=O)N(C)c1cccc(CSCC(=O)O)c1 [Example 1(1), [(3{[5-(4-Fluorophenyl)-2-methyl-3-furoyl](methyl)amino}benzyl)thio]acetic acid]
- melting point: 155 to 156 °C

Structure (SMILES): Cc1oc(-c2ccc(F)cc2)cc1COc1cccc(C(C)SC(C)(C)C(=O)O)c1 (stereo not drawn) [Example 6(65), 2-{[1-(3-{[5-(4-Fluorophenyl)-2-methyl-3-furyl]methoxy}phenyl)ethyl]thio}-2-methylpropionic acid]
- melting point: 89 to 90 °C

Structure (SMILES): Cc1oc(-c2ccc(C(F)(F)F)cc2)cc1COc1cccc(C(C)SC(C)(C)C(=O)O)c1 (stereo not drawn) [Example 6(66), 2-Methyl-2-({1-[3-({2-methyl-5-[4-(trifluoromethyl)phenyl]-3-furyl}methoxy)phenyl]ethyl}thio)propionic acid]
- melting point: 75 to 77 °C

Structure (SMILES): Cc1oc(-c2ccc(C(F)(F)F)cc2)cc1COc1ccc(OC(C)(C)C(=O)O)c(F)c1 [Example 6(68), 2-[2-Fluoro-4-({2-methyl-5-[4-(trifluoromethyl)phenyl]-3-furyl}methoxy)phenoxy]-2-methylpropionic acid]
- melting point: 82 to 83 °C

Structure (SMILES): CCc1oc(-c2ccc(C(F)(F)F)cc2)cc1CCCOc1ccc(F)c(CC(=O)O)c1 [Example 6(47), [5-(3-{2-Ethyl-5-[4-(trifluoromethyl)phenyl]-3-furyl}propoxy)-2-fluorophenyl]acetic acid]
- melting point: 128 to 129 °C

Structure (SMILES): Cc1cc(-c2ccc(C(F)(F)F)cc2)oc1COc1ccc(CC(C)(C)C(=O)O)cc1 [Example 20(1), 2,2-Dimethyl-3-[4-({3-methyl-5-[4-(trifluoromethyl)phenyl]-2-furyl}methoxy)phenyl]propionic acid]
- melting point: 124 to 126 °C

Structure (SMILES): Cc1nc(SCc2cc(-c3ccc(F)cc3)oc2C)sc1CC(=O)O [Example 6(18), [2-({[5-(4-Fluorophenyl)-2-methyl-3-furyl]methyl}thio)-4-methyl-1,3-thiazol-5-yl]acetic acid]
- melting point: 202 to 205 °C

Structure (SMILES): Cc1oc(-c2ccc(Cl)cc2)cc1COc1ccc(SC(C)(C)C(=O)O)cc1 [Example 6(114), 2-[(4-{[5-(4-Chlorophenyl)-2-methyl-3-furyl]methoxy}phenyl)thio]-2-methylpropionic acid]
- melting point: 130 to 131 °C

Structure (SMILES): Cc1cc(OCCc2cc(-c3ccc(C(F)(F)F)cc3)oc2C)ccc1CCC(=O)O [Example 6(22), 3-[2-Methyl-4-(2-{2-methyl-5-[4-(trifluoromethyl)phenyl]-3-furyl}ethoxy)phenyl]propionic acid]
- melting point: 118 to 120 °C

Structure (SMILES): Cc1oc(-c2ccc(C(F)(F)F)cc2)cc1COc1cccc(-c2cccc(CC(=O)O)c2)c1 [Example 6(126), [3′-({2-Methyl-5-[4-(trifluoromethyl)phenyl]-3-furyl}methoxy)-1,1′-biphenyl-3-yl]acetic acid]
- melting point: 128 to 129 °C

Structure (SMILES): Cc1oc(-c2ccc(C(F)(F)F)cc2)cc1CCCOc1ccc(SC(C)(C)C(=O)O)cc1 [Example 6(122), 2-Methyl-2-{[4-(3-{2-methyl-5-[4-(trifluoromethyl)phenyl]-3-furyl}propoxy)phenyl]thio}propionic acid]
- melting point: 127 to 128 °C

Structure (SMILES): Cc1oc(-c2ccc(C(F)(F)F)cc2)cc1COc1cccc(SC(C)(C)C(=O)O)c1 [Example 6(118), 2-Methyl-2-{[3-({2-methyl-5-[4-(trifluoromethyl)phenyl]-3-furyl}methoxy)phenyl]thio}propionic acid]
- melting point: 127 to 128 °C

Structure (SMILES): CCc1oc(-c2ccc(C(F)(F)F)cc2)cc1CCCOc1cccc(CC(=O)O)c1F [Example 6(97), [3-(3-{2-Ethyl-5-[4-(trifluoromethyl)phenyl]-3-furyl}propoxy)-2-fluorophenyl]acetic acid]
- melting point: 92 to 93 °C

Structure (SMILES): CCc1oc(-c2ccc(C(F)(F)F)cc2)cc1CCCOc1ccc(CC(=O)O)cc1Cl [Example 6(93), [3-Chloro-4-(3-{2-ethyl-5-[4-(trifluoromethyl)phenyl]-3-furyl}propoxy)phenyl]acetic acid]
- melting point: 112 to 113 °C

Structure (SMILES): Cc1oc(-c2ccc(C(F)(F)F)cc2)cc1COc1ccc(CC(C)(C)C(=O)O)cc1 [Example 6(78), 2,2-Dimethyl-3-[4-({2-methyl-5-[4-(trifluoromethyl)phenyl]-3-furyl}methoxy)phenyl]propionic acid]
- melting point: 125 to 127 °C

Structure (SMILES): Cc1oc(-c2ccc(C(F)(F)F)cc2)cc1CCOc1ccc(OCC(=O)O)cc1 [Example 6(23), [4-(2-{2-Methyl-5-[4-(trifluoromethyl)phenyl]-3-furyl}ethoxy)phenoxy]acetic acid]
- melting point: 132 to 133 °C

Structure (SMILES): CCCCc1oc(-c2ccc(C(F)(F)F)cc2)cc1CCCOc1cccc(CC(=O)O)c1 [Example 6(15), [3-(3-{2-Butyl-5-[4-(trifluoromethyl)phenyl]-3-furyl}propoxy)phenyl]acetic acid]
- melting point: 80 to 82 °C

Structure (SMILES): Cc1cc(OCc2cc(-c3ccc(C(F)(F)F)cc3)oc2C)ccc1CC(=O)O [Example 6(3), [2-Methyl-4-({2-methyl-5-[4-(trifluoromethyl)phenyl]-3-furyl}methoxy)phenyl]acetic acid]
- melting point: 147 to 149 °C

Structure (SMILES): Cc1oc(-c2ccc(C(F)(F)F)cc2)cc1COc1ccc2oc(CCC(=O)O)cc2c1 [Example 6(89), 3-[5-({2-Methyl-5-[4-(trifluoromethyl)phenyl]-3-furyl}methoxy)-1-benzofuran-2-yl]propionic acid]
- melting point: 156 to 157 °C

Structure (SMILES): CCc1oc(-c2ccc(C(F)(F)F)cc2)cc1CCCOc1cc(CC(=O)O)ccc1Cl [Example 6(98), [4-Chloro-3-(3-{2-ethyl-5-[4-(trifluoromethyl)phenyl]-3-furyl}propoxy)phenyl]acetic acid]
- melting point: 104 to 105 °C

Structure (SMILES): Cc1oc(-c2ccc(C(F)(F)F)cc2)cc1COc1ccc2oc(CC(=O)O)cc2c1 [Example 6(90), [5-({2-Methyl-5-[4-(trifluoromethyl)phenyl]-3-furyl}methoxy)-1-benzofuran-2-yl]acetic acid]
- melting point: 140 to 142 °C

Structure (SMILES): Cc1oc(-c2ccc(C(F)(F)F)cc2)cc1COc1cc(CSC(C)(C)C(=O)O)ccc1Cl [Example 6(99), 2-{[4-Chloro-3-({2-methyl-5-[4-(trifluoromethyl)phenyl]-3-furyl}methoxy)benzyl]thio}-2-methylpropionic acid]
- melting point: 140 to 142 °C

Structure (SMILES): CCC(Cc1ccc(OCc2cc(-c3ccc(C(F)(F)F)cc3)oc2C)cc1C)C(=O)O (stereo not drawn) [Example 6(75), 2-[2-Methyl-4-({2-methyl-5-[4-(trifluoromethyl)phenyl]-3-furyl}methoxy)benzyl]butanoic acid]
- melting point: 118 to 119 °C

Structure (SMILES): Cc1oc(-c2ccc(C(F)(F)F)cc2)cc1COc1ccc(CC(=O)O)cc1 [Example 6(9), [4-({2-Methyl-5-[4-(trifluoromethyl)phenyl]-3-furyl}methoxy)phenyl]acetic acid]
- melting point: 147 to 149 °C

Structure (SMILES): COc1ccc(-c2cc(COc3cccc(CSC(C)(C)C(=O)O)c3)c(C)o2)cc1 [Example 6(110), 2-[(3-{[5-(4-Methoxyphenyl)-2-methyl-3-furyl]methoxy}benzyl)thio]-2-methylpropionic acid]
- melting point: 96 to 97 °C

Structure (SMILES): CCc1oc(-c2ccc(C(F)(F)F)cc2)cc1CCCOc1cccc(C(C)(C)C(=O)O)c1 [Example 6(45), 2-[3-(3-{2-Ethyl-5-[4-(trifluoromethyl)phenyl]-3-furyl}propoxy)phenyl]-2-methylpropionic acid]
- melting point: 94 to 95 °C

Structure (SMILES): Cc1oc(-c2ccc(C(F)(F)F)cc2)cc1CCCOc1ccc(OCC(=O)O)cc1 [Example 6(25), [4-(3-{2-Methyl-5-[4-(trifluoromethyl)phenyl]-3-furyl}propoxy)phenoxy]acetic acid]
- melting point: 134 to 135 °C

Structure (SMILES): CCc1oc(-c2ccc(C(F)(F)F)cc2)cc1CCCOc1ccc(CC(=O)O)cc1 [Example 6(27), [4-(3-{2-Ethyl-5-[4-(trifluoromethyl)phenyl]-3-furyl}propoxy)phenyl]acetic acid]
- melting point: 121 to 122 °C

Structure (SMILES): CCc1oc(-c2ccc(C(F)(F)F)cc2)cc1CCCOc1ccc(OC)c(CC(=O)O)c1 [Example 6(39), [5-(3-{2-Ethyl-5-[4-(trifluoromethyl)phenyl]-3-furyl}propoxy)-2-methoxyphenyl]acetic acid]
- melting point: 138 to 139 °C

Structure (SMILES): Cc1nc(CCCc2cc(-c3ccc(C(F)(F)F)cc3)oc2C)sc1CC(=O)O [Example 13(4), [4-Methyl-2-(3-{2-methyl-5-[4-(trifluoromethyl)phenyl]-3-furyl}propyl)-1,3-thiazol-5-yl]acetic acid]
- melting point: 162 to 163 °C

Structure (SMILES): COC(Cc1ccc(OCc2cc(-c3ccc(C(F)(F)F)cc3)oc2C)cc1C)C(=O)O (stereo not drawn) [Example 6(77), 2-Methoxy-3-[2-methyl-4-({2-methyl-5-[4-(trifluoromethyl)phenyl]-3-furyl}methoxy)phenyl]propionic acid]
- melting point: 125 to 126 °C

Structure (SMILES): Cc1oc(-c2ccc(C(F)(F)F)cc2)cc1COc1cccc(CSC2(C(=O)O)CCC2)c1 [Example 9(3), 1-{[3-({2-Methyl-5-[4-(trifluoromethyl)phenyl]-3-furyl}methoxy)benzyl]thio}cyclobutanecarboxylic acid]
- melting point: 121 to 122 °C

Structure (SMILES): CCc1oc(-c2ccc(C(F)(F)F)cc2)cc1CCCOc1cc(CC(=O)O)ccc1F [Example 6(46), [3-(3-{2-Ethyl-5-[4-(trifluoromethyl)phenyl]-3-furyl}propoxy)-4-fluorophenyl]acetic acid]
- melting point: 91 to 93 °C
